Experimental data taken from patent US20130040882A1, “USE OF FIBROBLAST GROWTH FACTOR FRAGMENTS” (NOVARTIS AG, priority 2003, published 2013).

Test system: uterine gene expression
Assay: Gene expression profiling (HGU133A) in the uterus of ovariectomized monkeys treated with estradiol, tamoxifen or raloxifene
Assay type: in vivo, cynomolgus monkeys (Macaca fascicularis)
Details: uterus, OVX monkeys

## CC/C(=C(\c1ccccc1)c1ccc(OCCN(C)C)cc1)c1ccccc1 [tamoxifen]
  Fold change relative to SHAM control: Growth associated protein 43: 0.8 fold
  Fold change relative to SHAM control: H2A histone family, member Y: 1.4 fold
  Fold change relative to SHAM control: Heparan sulfate proteoglycan 2 (perlecan): 1.0 fold
  Fold change relative to SHAM control: Histone H2A.F/Z variant: 1.4 fold
  Fold change relative to SHAM control: Insulin-like growth factor binding protein 2, 36 kda: 1.7 fold
  Fold change relative to SHAM control: Insulin-like growth factor binding protein 5: 1.0 fold
  Fold change relative to SHAM control: Integrin, beta 5: 0.9 fold
  Fold change relative to SHAM control: Intercrine-alpha, mrna sequence: 0.9 fold
  Fold change relative to SHAM control: LDL receptor adaptor protein: 1.6 fold
  Fold change relative to SHAM control: LIM and senescent cell antigen-like domains 1: 1.1 fold
  Fold change relative to SHAM control: Laminin, beta 1: 1.0 fold
  Fold change relative to SHAM control: Latent transforming growth factor beta binding protein 1: 1.2 fold
  Fold change relative to SHAM control: Matrix metalloproteinase 19: 0.3 fold
  Fold change relative to SHAM control: Mitogen-activated protein kinase kinase kinase kinase 4: 1.0 fold
  Fold change relative to SHAM control: Nidogen (enactin): 1.4 fold
  Fold change relative to SHAM control: Osteoglycin (osteoinductive factor, mimecan): 0.8 fold
  Fold change relative to SHAM control: Peroxiredoxin 1: 1.4 fold
  Fold change relative to SHAM control: Phosphatase and tensin homolog (mutated in multiple advanced cancers 1): 1.0 fold
  Fold change relative to SHAM control: Phospholipid transfer protein: 0.9 fold
  Fold change relative to SHAM control: Pituitary tumour-transforming 1 interacting protein: 0.9 fold
  Fold change relative to SHAM control: Procollagen C-endopeptidase enhancer: 1.1 fold
  Fold change relative to SHAM control: Procollagen-proline, 2-oxoglutarate 4-dioxygenase (proline 4-hydroxylase), alpha polypeptide II: 1.0 fold
  Fold change relative to SHAM control: Progesterone receptor: 1.5 fold
  Fold change relative to SHAM control: Protein tyrosine kinase 9: 1.1 fold
  Fold change relative to SHAM control: SET domain, bifurcated 1: 1.4 fold
  Fold change relative to SHAM control: SPARC-like 1 (mast9, hevin): 0.8 fold
  Fold change relative to SHAM control: Secreted frizzled-related protein 1: 1.1 fold
  Fold change relative to SHAM control: Secreted frizzled-related protein 4: 1.4 fold
  Fold change relative to SHAM control: Secreted protein, acidic, cysteine-rich (osteonectin): 1.0 fold
  Fold change relative to SHAM control: Serine (or cysteine) proteinase inhibitor, clade H (heat shock protein 47), member 1, (collagen binding protein 1): 1.1 fold
  Fold change relative to SHAM control: Solute carrier family 22 (organic cation transporter), member 1-like: 1.5 fold
  Fold change relative to SHAM control: Solute carrier family 25 (mitochondrial carrier; adenine nucleotide translocator), member 5: 1.5 fold
  Fold change relative to SHAM control: Stem cell growth factor; lymphocyte secreted C-type lectin: 0.9 fold
  Fold change relative to SHAM control: Tenascin C (hexabrachion): 2.9 fold
  Fold change relative to SHAM control: Testis Enhanced Gene Transcript (Bax Inhibitor 1): 1.5 fold
  Fold change relative to SHAM control: Thioredoxin interacting protein: 0.9 fold
  Fold change relative to SHAM control: Transforming growth factor, beta-induced, 68 kda: 1.0 fold
  Fold change relative to SHAM control: Ubiquinol-cytochrome c reductase, Rieske iron-sulfur polypeptide 1: 1.1 fold
  Fold change relative to SHAM control: Wingless-type MMTV integration site family, member 2B: 1.1 fold
  Fold change relative to SHAM control: Wingless-type MMTV integration site family, member 16: 1.0 fold
Table 46
  Fold change relative to OVX: Insulin receptor: 0.7 fold
  Fold change relative to SHAM control: Insulin receptor: 1.2 fold
Table 51
  Fold change relative to OVX: Insulin receptor: 0.7 fold
  Fold change relative to SHAM control: Insulin receptor: 1.2 fold
Entry with OVX average 39
  Fold change relative to OVX: Fibronectin 1: 2.3 fold
Entry with OVX average 79
  Fold change relative to OVX: Bone morphogenetic protein 1: 1.9 fold
Entry with OVX average 93
  Fold change relative to OVX: Bone morphogenetic protein 1: 2.2 fold
Entry with OVX average 102
  Fold change relative to OVX: Insulin-like growth factor 1 (somatomedin C): 3.7 fold
Entry with OVX average 124
  Fold change relative to OVX: Fibrillin 1 (Marfan syndrome): 1.9 fold
Entry with OVX average 154
  Fold change relative to OVX: Collagen, type I, alpha 2: 6.1 fold
Entry with OVX average 156
  Fold change relative to OVX: Insulin-like growth factor 1 (somatomedin C): 4.6 fold
Entry with OVX average 171
  Fold change relative to OVX: Solute carrier family 2 (facilitated glucose/fructose transporter), member 5: 2.2 fold
Entry with OVX average 176
  Fold change relative to OVX: Solute carrier family 2 (facilitated glucose/fructose transporter), member 5: 2.1 fold
Entry with OVX average 182
  Fold change relative to OVX: Collagen, type IV, alpha 1: 3.2 fold
Entry with OVX average 224
  Fold change relative to OVX: Cyclin-dependent kinase inhibitor 1C (p57, Kip2): 0.7 fold
Entry with OVX average 310
  Fold change relative to OVX: Insulin-like growth factor 1 (somatomedin C): 4.8 fold
Entry with OVX average 419
  Fold change relative to OVX: Fibronectin 1: 2.0 fold
Entry with OVX average 527
  Fold change relative to OVX: Cyclin-dependent kinase inhibitor 1C (p57, Kip2): 0.5 fold
Entry with OVX average 586
  Fold change relative to OVX: Fibronectin 1: 1.9 fold
Entry with OVX average 648
  Fold change relative to OVX: Fibronectin 1: 1.9 fold
Entry with OVX average 690
  Fold change relative to OVX: Collagen, type IV, alpha 1: 2.7 fold
Entry with OVX average 757
  Fold change relative to OVX: Fibronectin 1: 1.6 fold
Entry with OVX average 762
  Fold change relative to OVX: Cyclin-dependent kinase inhibitor 1C (p57, Kip2): 0.5 fold
Entry with OVX average 811
  Fold change relative to OVX: ATP synthase, H+ transporting, mitochondrial F0 complex, subunit c (subunit 9) isoform 3: 2.0 fold
Entry with OVX average 874
  Fold change relative to OVX: Fibrillin 1 (Marfan syndrome): 2.1 fold
Entry with OVX average 1007
  Fold change relative to OVX: ATP synthase, H+ transporting, mitochondrial F0 complex, subunit c (subunit 9) isoform 3: 1.9 fold
Entry with OVX average 1084
  Fold change relative to OVX: Collagen, type III, alpha 1 (Ehlers-Danlos syndrome type IV, autosomal dominant): 3.4 fold
Entry with OVX average 2757
  Fold change relative to OVX: Collagen, type I, alpha 2: 3.7 fold
Entry with OVX average 3445
  Fold change relative to OVX: Collagen, type III, alpha 1 (Ehlers-Danlos syndrome type IV, autosomal dominant): 2.9 fold
Entry with OVX average 9495
  Fold change relative to OVX: H3 histone, family 3A: 1.4 fold
Entry with OVX average 9692
  Fold change relative to OVX: H3 histone, family 3A: 1.4 fold
Entry with SHAM average 100
  Fold change relative to SHAM control: Fibronectin 1: 0.9 fold
Entry with SHAM average 143
  Fold change relative to SHAM control: Bone morphogenetic protein 1: 1.0 fold
Entry with SHAM average 201
  Fold change relative to SHAM control: Cyclin-dependent kinase inhibitor 1C (p57, Kip2): 0.8 fold
Entry with SHAM average 205
  Fold change relative to SHAM control: Bone morphogenetic protein 1: 1.0 fold
Entry with SHAM average 226
  Fold change relative to SHAM control: Insulin-like growth factor 1 (somatomedin C): 1.7 fold
Entry with SHAM average 236
  Fold change relative to SHAM control: Fibrillin 1 (Marfan syndrome): 1.0 fold
Entry with SHAM average 291
  Fold change relative to SHAM control: Solute carrier family 2 (facilitated glucose/fructose transporter), member 5: 1.3 fold
Entry with SHAM average 317
  Fold change relative to SHAM control: Solute carrier family 2 (facilitated glucose/fructose transporter), member 5: 1.2 fold
Entry with SHAM average 417
  Fold change relative to SHAM control: Insulin-like growth factor 1 (somatomedin C): 1.7 fold
Entry with SHAM average 436
  Fold change relative to SHAM control: Collagen, type IV, alpha 1: 1.3 fold
Entry with SHAM average 459
  Fold change relative to SHAM control: Cyclin-dependent kinase inhibitor 1C (p57, Kip2): 0.6 fold
Entry with SHAM average 493
  Fold change relative to SHAM control: Collagen, type I, alpha 2: 1.9 fold
Entry with SHAM average 581
  Fold change relative to SHAM control: Insulin-like growth factor 1 (somatomedin C): 2.6 fold
Entry with SHAM average 660
  Fold change relative to SHAM control: Cyclin-dependent kinase inhibitor 1C (p57, Kip2): 0.6 fold
Entry with SHAM average 920
  Fold change relative to SHAM control: Fibronectin 1: 0.9 fold
Entry with SHAM average 1045
  Fold change relative to SHAM control: ATP synthase, H+ transporting, mitochondrial F0 complex, subunit c (subunit 9) isoform 3: 1.6 fold
Entry with SHAM average 1089
  Fold change relative to SHAM control: Fibronectin 1: 1.0 fold
Entry with SHAM average 1143
  Fold change relative to SHAM control: Collagen, type IV, alpha 1: 1.6 fold
Entry with SHAM average 1288
  Fold change relative to SHAM control: Fibronectin 1: 0.9 fold
Entry with SHAM average 1301
  Fold change relative to SHAM control: Fibronectin 1: 0.9 fold
Entry with SHAM average 1355
  Fold change relative to SHAM control: ATP synthase, H+ transporting, mitochondrial F0 complex, subunit c (subunit 9) isoform 3: 1.4 fold
Entry with SHAM average 1388
  Fold change relative to SHAM control: Fibrillin 1 (Marfan syndrome): 1.3 fold
Entry with SHAM average 2992
  Fold change relative to SHAM control: Collagen, type III, alpha 1 (Ehlers-Danlos syndrome type IV, autosomal dominant): 1.2 fold
Entry with SHAM average 7354
  Fold change relative to SHAM control: Collagen, type III, alpha 1 (Ehlers-Danlos syndrome type IV, autosomal dominant): 1.4 fold
Entry with SHAM average 7758
  Fold change relative to SHAM control: Collagen, type I, alpha 2: 1.3 fold
Entry with SHAM average 9408
  Fold change relative to SHAM control: H3 histone, family 3A: 1.4 fold
Entry with SHAM average 10239
  Fold change relative to SHAM control: H3 histone, family 3A: 1.3 fold
